Measured values as given in US10239873B2, “7-azaindole or 4,7-diazaindole derivatives as IKKϵ epsilon and TBK1 inhibitor and pharmaceutical composition comprising same” (GREEN CROSS CORPORATION, priority 2015, dated 2019).
pIC50: −log10 of the molar value.

Experiments:
IKKε = target: T1, IKKε (Homo sapiens, UniProt Q14164); test: ADP-Glo Kinase Assay, inhibition activity on IKKε; assay type: biochemical
T1 construct: purchased Promega and/or Invitrogen V4158; PR8031B; V3991 (not assigned to the two kinases)
T1 sequence (Q14164 1-716): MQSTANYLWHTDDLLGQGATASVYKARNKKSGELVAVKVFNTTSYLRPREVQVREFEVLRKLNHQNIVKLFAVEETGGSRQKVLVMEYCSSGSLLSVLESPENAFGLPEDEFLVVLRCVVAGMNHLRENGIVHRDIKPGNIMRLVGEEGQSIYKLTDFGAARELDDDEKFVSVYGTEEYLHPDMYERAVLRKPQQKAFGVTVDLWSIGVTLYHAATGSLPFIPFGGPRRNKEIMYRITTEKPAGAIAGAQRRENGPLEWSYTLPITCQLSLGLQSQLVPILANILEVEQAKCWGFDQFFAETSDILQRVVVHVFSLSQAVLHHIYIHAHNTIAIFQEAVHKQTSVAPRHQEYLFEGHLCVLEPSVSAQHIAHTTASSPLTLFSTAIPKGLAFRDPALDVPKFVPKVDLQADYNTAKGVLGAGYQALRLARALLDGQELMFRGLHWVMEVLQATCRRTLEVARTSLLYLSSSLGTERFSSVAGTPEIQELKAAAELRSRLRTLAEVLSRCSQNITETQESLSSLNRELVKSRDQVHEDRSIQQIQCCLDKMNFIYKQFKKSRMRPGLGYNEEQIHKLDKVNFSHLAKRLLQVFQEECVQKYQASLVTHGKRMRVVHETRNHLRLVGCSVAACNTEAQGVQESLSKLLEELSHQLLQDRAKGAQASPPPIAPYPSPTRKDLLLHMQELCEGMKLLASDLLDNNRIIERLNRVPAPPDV
Method in brief: (§1)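 In 40 mM Tris pH 7.5 with 20 mM MgCl2 and 0.1 mg/mL BSA, each enzyme (IKKε or TBK1 kinase system) was run according to the manufacturer's protocol. ADP formed was detected by ADP-Glo luminescence.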

TBK1 = target: T2, TBK1 (Homo sapiens, UniProt Q9UHD2); test: ADP-Glo Kinase Assay, inhibition activity on TBK1; assay type: biochemical
T2 construct: purchased Promega (Invitrogen is also named in the same bracket) V4158; PR8031B; V3991 (not assigned to the two kinases)
T2 sequence (Q9UHD2 1-729): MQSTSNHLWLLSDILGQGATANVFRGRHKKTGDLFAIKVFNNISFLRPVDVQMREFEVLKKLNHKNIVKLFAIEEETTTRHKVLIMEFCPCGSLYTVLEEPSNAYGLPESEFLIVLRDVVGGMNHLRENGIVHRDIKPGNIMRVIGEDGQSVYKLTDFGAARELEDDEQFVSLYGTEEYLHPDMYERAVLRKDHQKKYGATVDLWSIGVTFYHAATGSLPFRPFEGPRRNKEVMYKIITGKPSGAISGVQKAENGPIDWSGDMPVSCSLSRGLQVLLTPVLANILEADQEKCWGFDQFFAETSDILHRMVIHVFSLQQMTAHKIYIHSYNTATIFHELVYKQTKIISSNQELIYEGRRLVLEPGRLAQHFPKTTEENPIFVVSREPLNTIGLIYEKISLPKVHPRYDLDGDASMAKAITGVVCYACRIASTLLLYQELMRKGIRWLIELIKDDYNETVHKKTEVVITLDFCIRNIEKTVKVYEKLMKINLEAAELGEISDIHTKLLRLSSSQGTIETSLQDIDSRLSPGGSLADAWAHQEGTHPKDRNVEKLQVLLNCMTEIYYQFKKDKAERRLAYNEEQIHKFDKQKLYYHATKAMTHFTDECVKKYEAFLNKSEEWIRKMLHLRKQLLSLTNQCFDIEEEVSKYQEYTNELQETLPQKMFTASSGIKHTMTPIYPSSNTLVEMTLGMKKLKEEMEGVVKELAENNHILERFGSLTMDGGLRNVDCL
Method in brief: as §1

A pIC50 (IKKε) of 7.48 and a pIC50 (TBK1) of 7.82 were found for `CC1CN(C(=O)NC2CCCC2)CC=C1c1c[nH]c2ncc(-c3ccc(CN4CCN(C)CC4)s3)cc12` (stereo not drawn) [Example 126, N-cyclopentyl-5-methyl-4-(5-(5-((4-methylpiperazin-1-yl)methyl)thiophen-2-yl)-1H-pyrrolo[2,3-b]pyridin-3-yl)-5,6-dihydropyridine-1(2H)-carboxamide] in this work.

A pIC50 (IKKε) of 7.00 and a pIC50 (TBK1) of 8.40 were found for `CC1CN(C(=O)NC2CCCC2)CC=C1c1c[nH]c2ncc(-c3ccc(CN4CCOCC4)s3)cc12` (stereo not drawn) [Example 127, N-cyclopentyl-5-methyl-4-(5-(5-(morpholinomethyl)thiophen-2-yl)-1H-pyrrolo[2,3-b]pyridin-3-yl)-5,6-dihydropyridine-1(2H)-carboxamide] in this work.

A pIC50 (IKKε) of 6.92 and a pIC50 (TBK1) of 7.48 were found for `NS(=O)(=O)c1cccc(-c2cnc3[nH]cc(C4=CCN(C(=O)OC5CCCC5)CC4)c3c2)c1` [Example 145, Cyclopentyl 4-(5-(3-sulfamoylphenyl)-1H-pyrrolo[2,3-b]pyridin-3-yl)-5,6-dihydropyridine-1(2H)-carboxylate] in this work.

A pIC50 (IKKε) of 6.60 and a pIC50 (TBK1) of 7.27 were found for `CC(C)OC(=O)N1CC=C(c2c[nH]c3ncc(-c4ccc(S(C)(=O)=O)cc4)cc23)CC1` [Example 148, Isopropyl 4-(5-(4-(methylsulfonyl)phenyl)-1H-pyrrolo[2,3-b]pyridin-3-yl)-5,6-dihydropyridine-1(2H)-carboxylate] in this work.

A pIC50 (IKKε) of 6.55 and a pIC50 (TBK1) of 7.49 were found for `Cc1nnc(-c2cnc3[nH]cc(C4=CCN(C(=O)OC(C)(C)C)CC4)c3c2)s1` [Example 170, tert-Butyl 4-(5-(5-methyl-1,3,4-thiadiazol-2-yl)-1H-pyrrolo[2,3-b]pyridin-3-yl)-5,6-dihydropyridine-1(2H)-carboxylate] in this work.

A pIC50 (IKKε) of 6.30 and a pIC50 (TBK1) of 6.47 were found for `CN(C)S(=O)(=O)c1ccc(-c2cnc3[nH]cc(C4=CCN(C(=O)OC5CCCC5)CC4)c3c2)cc1` [Example 179, Cyclopentyl 4-(5-(4-(N,N-dimethylsulfamoyl)phenyl)-1H-pyrrolo[2,3-b]pyridin-3-yl)-5,6-dihydropyridine-1(2H)-carboxylate] in this work.

A pIC50 (IKKε) of 6.41 and a pIC50 (TBK1) of 6.85 were found for `O=C(c1cccs1)N1CC=C(c2c[nH]c3ncc(-c4ccc(S(=O)(=O)N5CCOCC5)cc4)cc23)CC1` [Example 190, (4-(5-(4-(Morpholinosulfonyl)phenyl)-1H-pyrrolo[2,3-b]pyridin-3-yl)-5,6-dihydropyridin-1(2H)-yl)(thiophen-2-yl)methanone] in this work.

A pIC50 (IKKε) of 6.55 and a pIC50 (TBK1) of 7.24 were found for `O=C(c1cccs1)N1CC=C(c2c[nH]c3ncc(-c4ccc5[nH]ncc5c4)cc23)CC1` [Example 204, (4-(5-(1H-indazol-5-yl)-1H-pyrrolo[2,3-b]pyridin-3-yl)-5,6-dihydropyridin-1(2H)-yl)(thiophen-2-yl)methanone] in this work.

A pIC50 (IKKε) of 7.64 and a pIC50 (TBK1) of 8.48 were found for `CN1CCN(Cc2ccc(-c3cnc4[nH]cc(C5=CCN(C(=O)c6cccs6)CC5)c4c3)s2)CC1` [Example 205, (4-(5-(5-((4-methylpiperazin-1-yl)methyl)thiophen-2-yl)-1H-pyrrolo[2,3-b]pyridin-3-yl)-5,6-dihydropyridin-1(2H)-yl)(thiophen-2-yl)methanone] in this work.

A pIC50 (IKKε) of 6.85 and a pIC50 (TBK1) of 8.15 were found for `O=C(c1ccc(-c2cnc3[nH]cc(C4=CCN(C(=O)c5cccs5)CC4)c3c2)cc1)N1CCOCC1` [Example 209, (4-(5-(4-(morpholine-4-carbonyl)phenyl)-1H-pyrrolo[2,3-b]pyridin-3-yl)-5,6-dihydropyridin-1(2H)-yl)(thiophen-2-yl)methanone] in this work.

A pIC50 (IKKε) of 6.40 and a pIC50 (TBK1) of 7.05 were found for `CS(=O)(=O)c1cccc(-c2cnc3[nH]cc(C4=CCN(C(=O)NC5CCCC5)CC4)c3n2)c1` [Example 228, N-cyclopentyl-4-(2-(3-(methylsulfonyl)phenyl)-5H-pyrrolo[2,3-b]pyrazin-7-yl)-5,6-dihydropyridine-1(2H)-carboxamide] in this work.

With `COc1ccc(-c2cnc3[nH]cc(C4CCN(C(=O)NC(C)C)CC4)c3c2)cc1OC` [Example 235, 4-(5-(3,4-dimethoxyphenyl)-1H-pyrrolo[2,3-b]pyridin-3-yl)-N-isopropylpiperidine-1-carboxamide] the pIC50 (IKKε) was < 5.00 and the pIC50 (TBK1) was < 5.00.

With `COc1ccc(-c2cnc3[nH]cc(C4=CCN(C(=O)NC(C)C)C4)c3c2)cc1OC` [Example 237, 3-(5-(3,4-dimethoxyphenyl)-1H-pyrrolo[2,3-b]pyridin-3-yl)-N-isopropyl-2,5-dihydro-1H-pyrrol-1-carboxamide] the pIC50 (IKKε) was < 5.00 and the pIC50 (TBK1) was < 5.00.

A pIC50 (IKKε) of 5.22 and a pIC50 (TBK1) of 5.21 were found for `COc1ccc(-c2cnc3[nH]cc(C4CCN(C(=O)NC(C)C)C4)c3c2)cc1OC` (stereo not drawn) [Example 238, 3-(5-(3,4-dimethoxyphenyl)-1H-pyrrolo[2,3-b]pyridin-3-yl)-N-isopropylpyrrolidine-1-carboxamide] in this work.

A pIC50 (IKKε) of 6.08 and a pIC50 (TBK1) of 6.77 were found for `O=C(c1cccs1)N1CC=C(c2c[nH]c3ncc(Nc4ccc(CN5CCOCC5)cc4)cc23)CC1` [Example 250, (4-(5-(4-(morpholinomethyl)phenylamino)-1H-pyrrolo[2,3-b]pyridin-3-yl)-5,6-dihydropyridin-1(2H)-yl)(thiophen-2-yl)methanone] in this work.
